Reference: publication PMC8822125, “RW-BP100-4D, a Promising Antimicrobial Candidate With Broad-Spectrum Bactericidal Activity” (Frontiers in Microbiology, 2022)
≈ marks a conversion by molar mass, not a printed value. Where a SMILES comes first, the peptide text is derived from it. Where no end group is shown, it is not given here.

Experiments:
[1] = tested on: S. enterica ATCC13076; assay: Intracellular antibacterial activity in MAC-T cells; assay type: cell-based, Salmonella enterica; details: 2 h, infected MAC-T cells
Procedure: (§1) The intracellular antibacterial activity of RW-BP100-4D against S. aureus ATCC29213 and S. enterica ATCC13076 were determined as described previously ([John et al., 2019]). MAC-T cells were cultured in a 12-well plate and then infected with S. aureus ATCC29213 or S. enterica ATCC13076 (∼10^5CFU, MOI = 10) for 1 h. The spare bacteria were eliminated by treating with kanamycin (100 μg/mL) for 1 h. After that, kanamycin was removed by washing with PBS for 4 times. Then RW-BP100-4D or RW-BP100 were added to a final concentration of 50 μg/mL, respectively and incubated for 2 h. Meanwhile, kanamycin (50 μg/mL) and PBS were set as the antibiotic treatment group and treatment control group, respectively. Finally, MAC-T cells were treated with 0.1% TritonX-100. The lysates were serially diluted and spread on selective agar plates to enumerate the intracellular live bacteria. Each test was performed with three independent repeats.

[2] = tested on: S. aureus ATCC29213; assay: as above; assay type: cell-based, Staphylococcus aureus; details: 2 h, infected MAC-T cells
Procedure: as §1

[3] = tested on: various microorganisms; assay: MIC/MBC, summary statements over several strains; assay type: cell-based
[4] = tested on: S. aureus ATCC29213 mature biofilm; assay: Mature biofilm dispersal assay (crystal violet); assay type: cell-based, Staphylococcus aureus; details: peptide 200 μg/mL, 30 min, 37°C on 24 h biofilm, crystal violet OD590
Procedure: Each test was performed with three independent repeats.

[5] = tested on: methicillin-resistant S. aureus ATCC33591; assay: Mouse skin infection model; assay type: in vivo; details: 24 h
Procedure: (§2) Female ICR mice (∼18 g, four weeks old) bought from Yangzhou University were used in this study. They were reared with ad libitum access to drinking water and antibiotic-free feed. The animal experiments were conducted in strict accordance with the Laboratory Animal Welfare and Animal Experimental Ethical Certificate, as issued by Committee on Animal Welfare and Experimental Ethics in Jiangsu Academy of Agricultural Sciences (approval no. JAAS20200516 and JAAS20211208).
(§3) The mouse skin infection model and bacteremia model were established to evaluate the treatment efficacy of RW-BP100-4D on local and system infections, respectively. In each model, ICR female mice were equally allocated into different treatment groups and each group contained six mice. The mouse skin infection model and bacteremia model were constructed according to previously described methods ([Natalia et al., 2019]; [Song et al., 2020]). The mice were challenged with methicillin-resistant S. aureus ATCC33591 (mecA+, MRSA) via spreading on skin lesion (5 × 10^5 CFU/mL, 0.1 mL) or intraperitoneal injection (3.0 × 10^8CFU/mL, 0.5 mL). […] S. aureus isolates were counted by using the Chromagar selective agar (Chromagar, France) supplemented with 8 μg/mL oxacillin.

[6] = tested on: methicillin-resistant S. aureus ATCC33591; assay: Mouse bacteremia model; assay type: in vivo; details: 25 mg/kg intraperitoneal 2 h after infection; 24 h
Procedure: as §2, §3

[7] = tested on: HeLa; details: peptide concentration 11 μM; ref Torcato et al., 2013; cited from earlier work
[8] = tested on: human erythrocytes; details: peptide 4.9 μM; ref Torcato et al., 2013; cited from earlier work
[9] = tested on: Escherichia coli and Psudomnas aeruginosa isolates; set-up: method as in Ferre et al., 2009; details: ref Ferre et al., 2009; cited from earlier work
[10] = tested on: MAC-T cells; details: peptide 150 μg/mL, 24 h, WST-1, mean ± SD, three repeats
[11] = tested on: Escherichia coli ATCC25922; details: Table 1; broth microdilution CLSI M100-S25, MH broth, 37°C, 18 h, three independent repeats
[12] = tested on: sheep red blood cells; details: sheep red blood cells in PBS, 37°C, 1 h, OD576, relative to melittin, mean ± SD, three repeats;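 further: hemolysis expressed in % from supernatant absorbance, with PBS-treated cells as 0% baseline and melittin as 100%, peptide mixed 1:1 with an 8% v/v erythrocyte suspension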
[13] = tested on: RAW264.7 cells; details: peptide 150 μg/mL, 24 h, WST-1, mean ± SD, three repeats
[14] = tested on: Staphylococcus aureus ATCC29213; assay: MIC/MBC, broth microdilution; assay type: cell-based; details: Table 1; broth microdilution CLSI M100-S25, MH broth, 37°C, 18 h, three independent repeats

With `NC[C@H]1O[C@H](O[C@H]2[C@H](O)[C@@H](O[C@H]3O[C@H](CO)[C@@H](O)[C@H](N)[C@H]3O)[C@H](N)C[C@@H]2N)[C@H](O)[C@@H](O)[C@@H]1O` [kanamycin] as the molecule, how does the “Intracellular CFU versus the untreated group, S. enterica ATCC13076” value ([1]; kanamycin 50 μg/mL) read?
The value was “no significant difference”.

And the “Intracellular CFU versus the untreated group, S. aureus ATCC29213” value ([2]; kanamycin 50 μg/mL)?
Its value is “no significant difference”.

Which “MBC values relative to the corresponding MIC values” ([3]; over the strains of Table 2) does the source give for RRLFRRILRWL-NH2 [RW-BP100] here?
Its value is 4–8 fold.

And the “Elimination of intracellular S. enterica ATCC13076” value ([1]; peptide 50 μg/mL, CFU count)?
The value was 2.57 log.

What about the “Elimination of intracellular S. aureus ATCC29213” value ([2]; peptide 50 μg/mL, CFU count) of the same molecule?
The value was 2.34 log.

What about the “Mature biofilm matrix lost compared to the PBS control” value [4] of the same molecule?
The value was 29.4%.

And the “Reduction of S. aureus ATCC33591 in infected mouse skin” value ([5]; peptide 50 μg (1 mg/mL, 50 μL) on skin lesion 2 h after infection, ICR female mice)?
The value was 3.13 log.

What about the “Bacterial loads in heart, liver and kidney at 25 mg/kg” value [6] of the same molecule?
The value was “did not significantly reduce”.

And the “Cell death rate of HeLa” value [7]?
The value was 73%.

And the “Hemolytic rate toward human erythrocytes” value [8]?
The value was 50%.

Which “MIC against Escherichia coli and Psudomnas aeruginosa isolates” value [9] does the source give for “KKLFKKILKYL-NH2 [BP100, short cationic AMP of 11 amino acids (…-NH2), hybrid of cecropin A and melittin]” here?
Its value is 2.5 to 5 µM.

For `CC1(C)S[C@@H]2[C@H](NC(=O)[C@H](N)c3ccccc3)C(=O)N2[C@H]1C(=O)O` [ampicillin], which “Bacteria load in infected mouse skin, antibiotic control” value ([5]; ampicillin 1 mg/mL, 100 μL on skin lesion) is on record?
Its value is “did not decrease the bacteria load”.

With `CC[C@H](C)[C@H](NC(=O)[C@@H](CCCNC(=N)N)NC(=O)[C@H](CCCNC(=N)N)NC(=O)[C@H](Cc1ccccc1)NC(=O)[C@H](CC(C)C)NC(=O)[C@H](CCCNC(=N)N)NC(=O)[C@@H](N)CCCNC(=N)N)C(=O)N[C@@H](CC(C)C)C(=O)N[C@@H](CCCNC(=N)N)C(=O)N[C@@H](Cc1c[nH]c2ccccc12)C(=O)N[C@@H](CC(C)C)C(N)=O` [RW-BP100-6D] (HELM PEPTIDE1{R.R.L.F.R.[dR].I.L.R.W.L.[am]}$$$$V2.0) as the molecule, how does the “Cell survival rate, MAC-T” value [10] read?
Its value is 58.87 ± 3.45%.

And the “MIC Escherichia coli ATCC25922” value [11]?
Its value is 12 µg/mL (≈ 7.58 µM).

What about the “MIC against S. aureus ATCC29213 and E. coli ATCC25922 (both strains together)” value ([3]; summary of Table 1) of the same molecule?
The value was 3 to 12 µg/mL.

And the “Hemolytic rate, 50 μg/mL” value ([12]; 50 μg/mL peptide)?
Its value is 2.33 ± 1.51%.

And the “Hemolytic rate, 100 μg/mL” value ([12]; 100 μg/mL peptide)?
Its value is 3.25 ± 0.23%.

What about the “Hemolytic rate, 150 μg/mL” value ([12]; 150 μg/mL peptide) of the same molecule?
The value was 32.57 ± 1.20%.

What about the “Hemolytic rate, 300 μg/mL” value ([12]; 300 μg/mL peptide) of the same molecule?
The value was 55.81 ± 2.87%.

And the “Cell survival rate, RAW264.7” value [13]?
The value was 5.92 ± 2.63%.

What about the “MIC Staphylococcus aureus ATCC29213” value [14] of the same molecule?
Its value is 12 µg/mL (≈ 7.58 µM).
